This passage reports EC50 results from PMC5890244, “Stimulus dependent diversity and stereotypy in the output of an olfactory functional unit” (Nature Communications, 2018).

One may read the EC50 as the concentration needed to bring the measured effect to its halfway point. Read a high EC50 as a less potent agent.

This experiment concerns the target T1, M72 odorant receptor (olfr160) (Mus musculus, UniProt A1L3R1).
T1 construct: full-length native receptor in its own olfactory sensory neurons of gene-targeted M72-GFP mice (neonatal epithelium); GFP serves as cell marker
T1 sequence (A1L3R1 1-309): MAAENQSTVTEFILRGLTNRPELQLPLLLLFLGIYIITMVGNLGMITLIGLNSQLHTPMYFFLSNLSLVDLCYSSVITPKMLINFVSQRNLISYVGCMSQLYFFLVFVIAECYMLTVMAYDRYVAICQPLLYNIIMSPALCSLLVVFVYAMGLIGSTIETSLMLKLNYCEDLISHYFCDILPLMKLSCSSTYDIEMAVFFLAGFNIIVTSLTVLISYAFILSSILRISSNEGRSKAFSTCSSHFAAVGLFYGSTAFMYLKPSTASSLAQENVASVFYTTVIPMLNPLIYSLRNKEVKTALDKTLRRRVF
In words: perforated patch clamp of dendritic knobs of M72-expressing OSNs, Hill fit. Type of experiment: cell-based. The following applies: 20-23 °C, pH 7.4; native OSNs; odorant from DMSO stock by pressure ejection; lower end of range, strongest ligand. From the text: perforated patch clamp of dendritic knobs of M72-expressing OSNs, Hill fit on M72 odorant receptor (olfr160) | 2HA is the strongest ligand yet identified for M72 | Normalized dose–response curves for seven M72 ligands fitted by the Hill equation
For orientation: Patch clamp records ionic current or voltage across a cell membrane.

`CC(=O)c1ccccc1O` [2HA, 2-hydroxyacetophenone] returned an EC50 of 30 nM.
